# Results published in US12024506B2, “Compounds” (Oxford University Innovation Limited, priority 2018, dated 2024).
# System: H358 cells (ATCC CRL-5807)
# Assay: Cell viability assay 1 (CellTiter-Glo), H358 cells
# Assay type: cell-based
# Settings: Homo sapiens, NCI-H358, 48 h, first value of the cell, read-out: Cell Viability H358 (concentration that decreases cell viability by 50%)
# Experimental: (§1) Cells (A549 ATCC CCL-185) are cultured in Dulbecco's Modified Eagle's Medium plus 10% foetal calf serum and 2 mM L-glutamine at 37° C., 5% CO2. Cells are plated onto white clear bottom 96-well plates (5000 cells/well in 200 μl media) and left to adhere overnight at 37° C., 5% CO2. Next day, test compound (1 μl at 200× concentration in 100% DMSO) is added to give final test compound concentration 1× in 0.5% DMSO. After 48 h of incubation at 37° C., 5% CO2, 20 μl CellTiter-Glo reagent (Promega G7572) is added into each well. Plates are incubated at room temperature with shaking for 30 min and then luminescence is read using a PheraStar plate reader. The concentration of compounds that decrease cell viability by 50% is calculated from dose response curves generated using Dotmatics data analysis software.
# In the H358 cell assay, cells (ATCC CRL-5807) are cultured in RPMI-1640 medium plus 10% foetal calf serum and 2 mM L-glutamine at 37° C., 5% CO2.
row,IC50 [µM],SMILES
1,12,"COc1nc(-c2cccc3c2OCCO3)ccc1Nc1ccccc1C(=O)NCC1CCNCC1 [Example 150, 2-[6-(2,3-Dihydro-benzo[1,4]dioxin-5-yl)-2-methoxy-pyridin-3-ylamino]-N-piperidin-4-ylmethyl-benzamide]"

# System: DLD1 cells (ATCC CCL-221)
# Assay: Cell viability assay 1 (CellTiter-Glo), DLD1 cells
# Assay type: cell-based
# Settings: Homo sapiens, DLD-1 cells, 48 h, second value of the cell, read-out: Cell Viability DLD-1 (concentration that decreases cell viability by 50%)
# Experimental: as §1
# In the DLD1 cell assay, cells (ATCC CCL-221) are cultured in RPMI-1640 medium plus 10% foetal calf serum and 2 mM L-glutamine at 37° C., 5% CO2.
row,IC50 [µM],SMILES
1,2.5,"COc1nc(-c2cccc3c2OCCO3)ccc1Nc1ccccc1C(=O)NCC1CCNCC1 [Example 150, 2-[6-(2,3-Dihydro-benzo[1,4]dioxin-5-yl)-2-methoxy-pyridin-3-ylamino]-N-piperidin-4-ylmethyl-benzamide]"

# Target: T1, GST-human KRas166 (G12V) GPPNHP (Homo sapiens, UniProt P01116, G12V)
# T1 construct: made in house; host or cells: E. coli C41(DE3)
# Assay: KRas small-molecule screening by SPR (Biacore T200)
# Assay type: binding
# Settings: compound 100 uM, 5% DMSO buffer; immobilised GST-KRas166 (G12V) GPPNHP
# Experimental: For SPR assays pGEX-KRAS(G12V) plasmid was transformed into E. coli C41(DE3). Bacterial cells were cultured at 37° C. to an OD600 of 0.6 and induced with IPTG (final 0.1 mM) at 18° C. over night. The GST fusion proteins were extracted from bacteria pellets after cell disruption in 140 mM NaCl, 2.7 mM KCl, 10 mM NaH2PO4, 1.8 mM KH2PO4, 1 mM EDTA, 2 mM MgCl2 pH 7.4 and purified by glutathione-sepharose column chromatography (GE Healthcare), eluting with 50 mM Tris-HCl pH8.0, 10 mM reduced glutathione, 1 mM DTT, 2 mM MgCl2. The eluted proteins were dialysed against 50 mM Tris-HCl pH8.0, 1 mM DTT, 2 mM MgCl2 and concentrated to 10 mg/ml using a Biomax-30 ULTRAFREE-15 centrifugal filter device (Millipore). Purified KRAS protein was loaded with GPPNHP as described elsewhere (Pacold et al., 2000). Loaded protein was then purified by gel filtration on a HiLoad Superdex-75 HR column (GE Healthcare) in 1×PBS pH7.4, 5 mM MgCl2 and concentrated for storage.
# Protocol for KRas Small-Molecule Screening and Affinity Measurements by SPR
# To a previously immobilized CM5 chip (GE Healthcare BR-1005-30) with anti GST antibody via amine coupling method, GST in channel 1 and GST-human KRas166 (G12V) GPPNHP in channel 2 were immobilised. GST was immobilised between 2,000 and 5,000 Response units. KRAS166 (G12V) was immobilized between 10,000 to 15,000 Response Units.
# In a 96 well plate, compounds were diluted in […], 5 mM MgCl2 and 5% DMSO Buffer to a final concentration of 100 uM. DCAl was used as positive control. Experiment also included a solvent correction curve for 5% DMSO. Screening and evaluation of the protein immobilization and the compounds screening was done accordingly to the BIACORE T200 control and evaluation software.
# Calculations for how many response units are required for a 1:1 ratio of compound/protein interaction are shown below. • Protein immobilisation: 10,000 RU; average fragment 300 Da in size. • Rmax=(MWA/MWL)×RL×SM • MWA is the molecular weight of the analyte in Da • MWL is the molecular weight of the ligand in Da • RL is the immobilization level in RU • SM is the molar stoichiometry (assume 1:1) • Rmax=300/47,500×10,000×1 • Rmax=63 RU. Cell Viability Assay protocols Assay 1
row,SPR Response Units [Response Units],SMILES
1,80,"COc1nc(-c2cccc3c2OC(CNC(=O)C2CCOCC2)CO3)ccc1NC(=O)N[C@H]1CC[C@@H](N)C1 (stereo partly drawn) [Example 141, tetrahydro-pyran-4-carboxylic acid (8-{5-[3-((1S,3R)-3-amino-cyclopentyl)-ureido]-6-methoxy-pyridin-2-yl}-2,3-dihydro-benzo[1,4]dioxin-2-ylmethyl)-amide]"
2,26,"N[C@H]1CC[C@@H](NC(=O)Nc2ccnc(-c3cccc4c3OC(CNC(=O)C3CCOCC3)CO4)c2)C1 (stereo partly drawn) [Example 142, tetrahydro-pyran-4-carboxylic acid (8-{4-[3-((1R,3S)-3-amino-cyclopentyl)-ureido]-pyridin-2-yl}-2,3-dihydro-benzo[1,4]dioxin-2-ylmethyl)-amide]"
3,36,"COc1nc(-c2cccc3c2OCCO3)ccc1Nc1ccccc1C(=O)NCC1CCN(C(=O)OC(C)(C)C)CC1 [Example 152, 4-({2-[6-(2,3-dihydro-benzo[1,4]dioxin-5-yl)-2-methoxy-pyridin-3-ylamino]-benzoylamino}-methyl)-piperidine-1-carboxylic acid tert-butyl ester]"
4,59,"c1cc2c(c(-c3ccc(Nc4ccc(CNCC5COCCN5)cc4)nn3)c1)OCCO2 (centres unmarked) [Example 154, [6-(2,3-Dihydro-benzo[1,4]dioxin-5-yl)-pyridazin-3-yl]-(4-{[(morpholin-3-ylmethyl)-amino]-methyl}-phenyl)-amine]"
5,5,"CN(C)Cc1cccc(C(=O)N2CCN(c3cccc4c3OCCO4)CC2)c1 [Example 156, [4-(2,3-Dihydro-benzo[1,4]dioxin-5-yl)-piperazin-1-yl]-(3-dimethylaminomethyl-phenyl)-methanone]"
6,16,COc1nc(-c2cccc3c2OCCO3)ccc1Nc1ccc(C(=O)NCc2cc[nH]c(=O)c2)cc1 [Example 161]
7,23,"COc1nc(-c2cccc3c2OCCO3)ccc1Nc1cccc(C(=O)NCc2cccc(F)n2)c1 [Example 168, 3-[6-(2,3-Dihydro-benzo[1,4]dioxin-5-yl)-2-methoxy-pyridin-3-ylamino]-N-(6-fluoro-pyridin-2-ylmethyl)-benzamide]"
8,43,"COc1nc(-c2cccc3c2OCCO3)ccc1Nc1ccc(C(=O)NCc2cccc(C)n2)cc1 [Example 174, 4-[6-(2,3-Dihydro-benzo[1,4]dioxin-5-yl)-2-methoxy-pyridin-3-ylamino]-N-(6-methyl-pyridin-2-ylmethyl)-benzamide]"

# The remaining lines, values behind:
row,SMILES,SPR Response Units [Response Units]
1,"CN(C)CCOc1ccc(C(=O)NCC2COc3cccc(-c4ccccn4)c3O2)cc1 (centres unmarked) [Example 104, 4-(2-Dimethylamino-ethoxy)-N-(8-pyridin-2-yl-2,3-dihydro-benzo[1,4]dioxin-2-ylmethyl)-benzamide]",35
2,"CN1CCN(Cc2ccc(C(=O)NCC3COc4cccc(-c5ccc(OCCN6CCOCC6)cn5)c4O3)o2)CC1 (centres unmarked) [Example 107, 5-(4-methyl-piperazin-1-ylmethyl)-furan-2-carboxylic acid {8-[5-(2-morpholin-4-yl-ethoxy)-pyridin-2-yl]-2,3-dihydro-benzo[1,4]dioxin-2-ylmethyl}-amide]",9
3,"OCC1COc2cccc(-c3ccc(OCCN4CCOCC4)cn3)c2O1 (centres unmarked) [Example 110, {8-[5-(2-Morpholin-4-yl-ethoxy)-pyridin-2-yl]-2,3-dihydro-benzo[1,4]dioxin-2-yl}-methanol]",4.6
4,"O=C(NCC1COc2cccc(-c3ccc(OCCN4CCOCC4)cn3)c2O1)C1CCOCC1 (centres unmarked) [Example 111, Tetrahydro-pyran-4-carboxylic acid {8-[5-(2-morpholin-4-yl-ethoxy)-pyridin-2-yl]-2,3-dihydro-benzo[1,4]dioxin-2-ylnethyl}-amide]",29
5,"COc1nc(-c2cccc3c2OCCO3)ccc1NC(=O)CC1CCN(C)CC1 [Example 113, N-[6-(2,3-Dihydro-benzo[1,4]dioxin-5-yl)-2-methoxy-pyridin-3-yl]-2-(1-methyl-piperidin-4-yl)-acetamide]",30
6,"COc1cc(N)cc(-c2cccc3c2O[C@H](CNC(=O)c2ccc(CN4CCN(C)CC4)o2)CO3)n1 [Example 114, 5-(4-Methyl-piperazin-1-ylmethyl)-furan-2-carboxylic acid [(R)-8-(4-amino-6-methoxy-pyridin-2-yl)-2,3-dihydro-benzo[1,4]dioxin-2-ylmethyl]-amide]",23
7,"COc1nc(Nc2cccc3c2OC(CNC(=O)c2ccc(CN4CCN(C)CC4)o2)CO3)ccc1NC(=O)[C@H]1CCCN1 (stereo partly drawn) [Example 131, (R)-Pyrrolidine-2-carboxylic acid{2-methoxy-6-[3-({[5-(4-methyl-piperazin-1-ylmethyl)-furan-2-carbonyl]-amino}-methyl)-2,3-dihydro-benzo[1,4]dioxin-5-ylamino]-pyridin-3-yl}-amide]",40
8,"COc1cc(NC(=O)[C@@H]2CC[C@H](N)C2)cc(-c2cccc3c2OCCO3)n1 [Example 133, (1R,3S)-3-Amino-cyclopentanecarboxylic acid[2-(2,3-dihydro-benzo[1,4]dioxin-5-yl)-6-methoxy-pyridin-4-yl]-amide]",96
9,COc1cc(NC(=O)N[C@@H]2CC[C@H](N)C2)cc(-c2cccc3c2OC(CNC(=O)C2CCOCC2)CO3)n1 (some centres unmarked) [Example 135],57
10,"COc1cc(NC(=O)N[C@@H]2CC[C@H](N)C2)cc(-c2cccc3c2OCCO3)n1 [Example 136, 1-((1R,3S)-3-Amino-cyclopentyl)-3-[2-(2,3-dihydro-benzo[1,4]dioxin-5-yl)-6-methoxy-pyridin-4-yl]-urea]",75
11,"CN1CCN(Cc2ccc(C(=O)NCC3COc4cccc(-c5cn(C)cn5)c4O3)o2)CC1 (centres unmarked) [Example 137, 5-(4-Methyl-piperazin-1-ylmethyl)-furan-2-carboxylic acid [8-(1-methyl-1H-imidazol-4-yl)-2,3-dihydro-benzo[1,4]dioxin-2-ylmethyl]-amide]",50
12,"CN(C)Cc1cccc(Nc2ccnc(-c3cccc4c3OC(CNC(=O)C3CCOCC3)CO4)c2)c1 (centres unmarked) [Example 140, tetrahydro-pyran-4-carboxylic acid {8-[4-(3-dimethylaminomethyl-phenylamino)-pyridin-2-yl]-2,3-dihydro-benzo[1,4]dioxin-2-ylmethyl}-amide]",32
13,"CC(C)(C)OC(=O)NCc1ccc(C(=O)N2CCN(c3cccc4c3OCCO4)CC2)cc1 [Example 169, {4-[4-(2,3-Dihydro-benzo[1,4]dioxin-5-yl)-piperazine-1-carbonyl]-benzyl}-carbamic acid tert-butyl Ester]",25
